Where a name gives a salt, the structure may show the parent alone.
How the values were obtained:
[1] = molecular target: Serotoninergic 5-HT2A (Homo sapiens, UniProt P28223); experiment: competitive radioligand binding, Serotoninergic 5-HT2A; settings: read-out: radio-labelled ligand displacement, Serotoninergic 5-HT2A
Procedure, shortened: (§1)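 Radioligand displacement measured quantitatively serves as the readout; each compound is tested at a single concentration of 1 μM against the receptor in a competition binding setup.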

[2] = molecular target: Histaminergic H3 (Homo sapiens, UniProt Q9Y5N1); experiment: competitive radioligand binding, Histaminergic H3; settings: compound concentration of 1 μM; read-out: radio-labelled ligand displacement, Histaminergic H3
Procedure, shortened: as §1

[3] = molecular target: T1, Adrenergic α2A (Homo sapiens, UniProt P08913); experiment: competitive radioligand binding, Adrenergic α2A; settings: read-out: radio-labelled ligand displacement, Adrenergic α2A
T1 sequence (P08913 1-465): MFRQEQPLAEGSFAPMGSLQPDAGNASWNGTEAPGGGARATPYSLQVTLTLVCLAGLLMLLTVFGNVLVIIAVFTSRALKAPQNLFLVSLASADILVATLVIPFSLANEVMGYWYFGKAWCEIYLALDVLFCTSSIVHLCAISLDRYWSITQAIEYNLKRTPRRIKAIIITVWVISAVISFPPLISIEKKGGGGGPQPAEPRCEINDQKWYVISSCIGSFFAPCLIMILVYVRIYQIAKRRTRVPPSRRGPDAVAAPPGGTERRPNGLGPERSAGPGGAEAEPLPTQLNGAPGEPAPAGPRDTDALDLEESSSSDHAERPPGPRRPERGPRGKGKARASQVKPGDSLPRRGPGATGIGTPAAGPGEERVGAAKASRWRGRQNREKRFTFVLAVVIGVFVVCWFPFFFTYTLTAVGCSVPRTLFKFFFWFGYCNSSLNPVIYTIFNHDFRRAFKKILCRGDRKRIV
Procedure, shortened: as §1

[4] = molecular target: T2, Serotoninergic 5-HT1A (Homo sapiens, UniProt P08908); experiment: competitive radioligand binding, Serotoninergic 5-HT1A; settings: compound concentration of 1 μM; read-out: radio-labelled ligand displacement, Serotoninergic 5-HT1A
T2 sequence (P08908 1-422): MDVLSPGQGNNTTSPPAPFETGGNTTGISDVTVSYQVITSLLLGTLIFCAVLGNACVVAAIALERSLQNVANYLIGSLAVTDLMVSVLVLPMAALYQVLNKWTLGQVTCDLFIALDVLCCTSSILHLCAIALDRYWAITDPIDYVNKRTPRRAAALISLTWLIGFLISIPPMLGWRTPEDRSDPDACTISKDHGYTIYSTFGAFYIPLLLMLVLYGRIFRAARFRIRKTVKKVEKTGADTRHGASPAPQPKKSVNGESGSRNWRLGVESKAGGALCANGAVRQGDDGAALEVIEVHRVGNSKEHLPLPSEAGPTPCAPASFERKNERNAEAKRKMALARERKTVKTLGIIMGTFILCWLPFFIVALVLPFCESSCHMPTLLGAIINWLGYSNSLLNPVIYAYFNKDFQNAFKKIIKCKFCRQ
Procedure, shortened: as §1

[5] = molecular target: Serotoninergic 5-HT7 (Homo sapiens, UniProt P34969); experiment: competitive radioligand binding, Serotoninergic 5-HT7; settings: compound concentration of 1 μM; read-out: radio-labelled ligand displacement, Serotoninergic 5-HT7
Procedure, shortened: as §1

[6] = molecular target: Dopaminergic D2L (Homo sapiens, UniProt P14416); experiment: competitive radioligand binding, Dopaminergic D2L; settings: compound concentration of 1 μM; read-out: radio-labelled ligand displacement, Dopaminergic D2L
Procedure, shortened: as §1

[7] = molecular target: Serotoninergic 5-HT6 (Homo sapiens, UniProt P50406); experiment: competitive radioligand binding, Serotoninergic 5-HT6; settings: compound concentration of 1 μM; read-out: radio-labelled ligand displacement, Serotoninergic 5-HT6
Procedure, shortened: as §1

[8] = system: Adrenergic α1A; experiment: competitive radioligand binding, Adrenergic α1A; settings: compound concentration of 1 μM
Procedure, shortened: as §1

[9] = molecular target: Dopaminergic D1 (Homo sapiens, UniProt P21728); experiment: competitive radioligand binding, Dopaminergic D1; settings: compound concentration of 1 μM; read-out: radio-labelled ligand displacement, Dopaminergic D1
Procedure, shortened: as §1

[10] = molecular target: Serotoninergic 5-HT2B (Homo sapiens, UniProt P41595); experiment: competitive radioligand binding, Serotoninergic 5-HT2B; settings: read-out: radio-labelled ligand displacement, Serotoninergic 5-HT2B
Procedure, shortened: as §1

[11] = molecular target: T3, Serotoninergic 5-HT2C (Homo sapiens, UniProt P28335); experiment: competitive radioligand binding, Serotoninergic 5-HT2C; settings: read-out: radio-labelled ligand displacement, Serotoninergic 5-HT2C
T3 sequence (P28335 33-458): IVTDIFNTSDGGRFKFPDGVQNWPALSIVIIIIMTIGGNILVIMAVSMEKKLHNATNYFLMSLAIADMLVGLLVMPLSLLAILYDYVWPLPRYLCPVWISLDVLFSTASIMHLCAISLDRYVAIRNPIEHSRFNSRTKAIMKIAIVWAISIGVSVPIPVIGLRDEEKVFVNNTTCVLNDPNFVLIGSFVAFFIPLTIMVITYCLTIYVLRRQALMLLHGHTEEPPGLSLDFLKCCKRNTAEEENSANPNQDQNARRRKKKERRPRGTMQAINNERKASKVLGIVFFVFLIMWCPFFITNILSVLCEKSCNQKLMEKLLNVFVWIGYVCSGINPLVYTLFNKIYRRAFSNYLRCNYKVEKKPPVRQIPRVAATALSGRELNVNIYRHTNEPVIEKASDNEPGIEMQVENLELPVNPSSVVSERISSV
Procedure, shortened: as §1

[12] = molecular target: Histaminergic H1 (Homo sapiens, UniProt P35367); experiment: competitive radioligand binding, Histaminergic H1; settings: compound concentration of 1 μM; read-out: radio-labelled ligand displacement, Histaminergic H1
Procedure, shortened: as §1

[13] = system: Serotoninergic 5-HT1B; experiment: competitive radioligand binding, Serotoninergic 5-HT1B; settings: compound concentration of 1 μM
Procedure, shortened: as §1

[14] = molecular target: Dopaminergic D2S (Homo sapiens, UniProt P14416); experiment: competitive radioligand binding, Dopaminergic D2S; settings: compound concentration of 1 μM; read-out: radio-labelled ligand displacement, Dopaminergic D2S
Procedure, shortened: as §1

Chain of Serotoninergic 5-HT7 (P34969 whole entry): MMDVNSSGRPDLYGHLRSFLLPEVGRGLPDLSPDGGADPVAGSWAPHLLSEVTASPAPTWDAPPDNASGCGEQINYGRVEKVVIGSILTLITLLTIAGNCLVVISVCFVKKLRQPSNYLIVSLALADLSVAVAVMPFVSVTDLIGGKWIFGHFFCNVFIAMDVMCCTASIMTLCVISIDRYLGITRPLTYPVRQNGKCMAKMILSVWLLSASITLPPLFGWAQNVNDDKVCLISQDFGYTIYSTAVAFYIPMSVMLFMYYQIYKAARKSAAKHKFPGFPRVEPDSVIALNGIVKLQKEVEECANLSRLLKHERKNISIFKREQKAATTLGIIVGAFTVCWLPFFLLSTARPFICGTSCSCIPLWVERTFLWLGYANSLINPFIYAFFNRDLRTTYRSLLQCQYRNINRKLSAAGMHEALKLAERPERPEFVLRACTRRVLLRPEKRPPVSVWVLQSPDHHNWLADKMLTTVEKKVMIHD
Chain of Histaminergic H1 (P35367 whole entry): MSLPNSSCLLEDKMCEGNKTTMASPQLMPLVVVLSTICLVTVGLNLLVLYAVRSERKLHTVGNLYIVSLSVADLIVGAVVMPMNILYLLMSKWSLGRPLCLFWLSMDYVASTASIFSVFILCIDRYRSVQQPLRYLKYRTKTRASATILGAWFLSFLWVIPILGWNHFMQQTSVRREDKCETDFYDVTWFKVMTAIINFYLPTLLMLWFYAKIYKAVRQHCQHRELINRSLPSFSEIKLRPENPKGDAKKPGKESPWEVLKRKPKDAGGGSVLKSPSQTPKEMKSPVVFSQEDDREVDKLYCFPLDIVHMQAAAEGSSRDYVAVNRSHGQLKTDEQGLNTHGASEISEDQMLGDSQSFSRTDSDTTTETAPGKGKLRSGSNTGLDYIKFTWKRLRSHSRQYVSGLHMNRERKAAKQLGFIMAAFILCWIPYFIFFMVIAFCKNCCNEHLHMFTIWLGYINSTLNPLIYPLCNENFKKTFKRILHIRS
Chain of Serotoninergic 5-HT2B (P41595 whole entry): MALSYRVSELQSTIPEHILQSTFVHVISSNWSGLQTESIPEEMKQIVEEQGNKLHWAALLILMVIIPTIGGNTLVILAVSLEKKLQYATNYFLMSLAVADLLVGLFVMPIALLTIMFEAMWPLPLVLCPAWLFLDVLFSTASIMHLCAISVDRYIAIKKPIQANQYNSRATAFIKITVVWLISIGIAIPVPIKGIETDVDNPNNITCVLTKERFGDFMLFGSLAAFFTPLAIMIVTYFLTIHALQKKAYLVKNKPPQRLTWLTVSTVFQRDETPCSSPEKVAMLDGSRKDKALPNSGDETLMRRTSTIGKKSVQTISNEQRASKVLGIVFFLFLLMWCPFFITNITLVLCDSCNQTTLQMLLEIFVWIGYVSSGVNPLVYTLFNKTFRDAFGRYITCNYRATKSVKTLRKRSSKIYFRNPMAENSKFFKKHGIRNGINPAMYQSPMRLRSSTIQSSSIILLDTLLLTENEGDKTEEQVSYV
Chain of Serotoninergic 5-HT2A (P28223 whole entry): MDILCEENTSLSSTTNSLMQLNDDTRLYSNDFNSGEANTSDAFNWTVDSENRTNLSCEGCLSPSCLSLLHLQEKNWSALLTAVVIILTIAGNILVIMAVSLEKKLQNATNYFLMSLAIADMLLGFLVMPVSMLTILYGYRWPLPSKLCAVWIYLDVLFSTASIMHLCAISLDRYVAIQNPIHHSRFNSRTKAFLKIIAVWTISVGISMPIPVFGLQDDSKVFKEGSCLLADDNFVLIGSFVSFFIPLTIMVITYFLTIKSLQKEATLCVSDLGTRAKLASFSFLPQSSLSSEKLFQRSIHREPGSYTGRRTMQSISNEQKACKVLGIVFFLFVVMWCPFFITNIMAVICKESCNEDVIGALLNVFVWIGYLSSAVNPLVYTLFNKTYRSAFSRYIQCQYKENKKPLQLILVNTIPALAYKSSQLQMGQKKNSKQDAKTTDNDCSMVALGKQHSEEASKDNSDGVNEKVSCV
Chain of Dopaminergic D1 (P21728 whole entry): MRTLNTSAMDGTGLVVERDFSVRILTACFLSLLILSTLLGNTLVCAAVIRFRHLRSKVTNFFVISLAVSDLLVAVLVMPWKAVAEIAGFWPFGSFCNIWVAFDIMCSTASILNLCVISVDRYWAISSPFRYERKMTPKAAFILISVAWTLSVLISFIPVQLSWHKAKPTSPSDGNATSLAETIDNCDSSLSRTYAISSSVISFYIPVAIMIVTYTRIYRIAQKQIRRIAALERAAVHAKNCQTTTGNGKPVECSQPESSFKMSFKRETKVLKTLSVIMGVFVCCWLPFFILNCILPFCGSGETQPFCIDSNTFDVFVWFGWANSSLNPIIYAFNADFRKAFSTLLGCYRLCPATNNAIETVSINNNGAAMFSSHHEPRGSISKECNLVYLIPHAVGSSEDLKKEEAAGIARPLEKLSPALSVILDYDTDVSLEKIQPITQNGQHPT
Chain of Dopaminergic D2L (P14416 whole entry): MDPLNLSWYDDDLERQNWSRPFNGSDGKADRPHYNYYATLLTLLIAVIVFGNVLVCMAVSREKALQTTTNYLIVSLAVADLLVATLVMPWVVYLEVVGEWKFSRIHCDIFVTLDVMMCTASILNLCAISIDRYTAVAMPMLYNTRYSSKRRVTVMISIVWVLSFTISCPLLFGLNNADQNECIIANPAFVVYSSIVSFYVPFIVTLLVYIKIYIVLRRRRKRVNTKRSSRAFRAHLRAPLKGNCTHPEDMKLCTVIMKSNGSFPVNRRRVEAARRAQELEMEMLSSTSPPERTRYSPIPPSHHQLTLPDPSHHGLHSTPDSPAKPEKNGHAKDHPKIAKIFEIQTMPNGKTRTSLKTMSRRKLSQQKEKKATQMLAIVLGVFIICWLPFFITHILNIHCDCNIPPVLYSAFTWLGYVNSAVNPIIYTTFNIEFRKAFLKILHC
Chain of Serotoninergic 5-HT6 (P50406 whole entry): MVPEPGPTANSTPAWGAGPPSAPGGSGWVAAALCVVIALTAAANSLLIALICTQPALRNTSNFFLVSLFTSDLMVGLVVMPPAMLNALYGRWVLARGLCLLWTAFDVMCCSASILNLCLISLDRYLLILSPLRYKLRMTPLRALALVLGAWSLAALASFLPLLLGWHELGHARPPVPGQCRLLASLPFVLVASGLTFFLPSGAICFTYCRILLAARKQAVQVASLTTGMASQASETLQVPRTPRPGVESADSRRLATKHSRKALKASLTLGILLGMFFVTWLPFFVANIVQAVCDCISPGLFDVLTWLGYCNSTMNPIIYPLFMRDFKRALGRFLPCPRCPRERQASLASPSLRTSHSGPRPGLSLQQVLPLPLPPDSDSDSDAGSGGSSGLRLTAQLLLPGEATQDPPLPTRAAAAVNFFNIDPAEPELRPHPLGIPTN
Chain of Histaminergic H3 (Q9Y5N1 whole entry): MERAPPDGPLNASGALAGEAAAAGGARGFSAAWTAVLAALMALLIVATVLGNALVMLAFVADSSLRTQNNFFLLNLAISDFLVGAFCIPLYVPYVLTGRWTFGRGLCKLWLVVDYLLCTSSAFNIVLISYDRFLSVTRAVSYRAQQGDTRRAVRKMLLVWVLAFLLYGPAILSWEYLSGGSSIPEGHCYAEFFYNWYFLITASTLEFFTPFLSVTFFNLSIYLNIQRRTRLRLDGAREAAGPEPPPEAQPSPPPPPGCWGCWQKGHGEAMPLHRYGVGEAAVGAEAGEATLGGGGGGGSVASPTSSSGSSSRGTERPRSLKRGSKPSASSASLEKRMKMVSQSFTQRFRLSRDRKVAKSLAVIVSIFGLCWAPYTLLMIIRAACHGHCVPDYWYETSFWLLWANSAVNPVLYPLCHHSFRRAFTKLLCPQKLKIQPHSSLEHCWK
Chain of Dopaminergic D2S (P14416 1-414 isoform P14416-2): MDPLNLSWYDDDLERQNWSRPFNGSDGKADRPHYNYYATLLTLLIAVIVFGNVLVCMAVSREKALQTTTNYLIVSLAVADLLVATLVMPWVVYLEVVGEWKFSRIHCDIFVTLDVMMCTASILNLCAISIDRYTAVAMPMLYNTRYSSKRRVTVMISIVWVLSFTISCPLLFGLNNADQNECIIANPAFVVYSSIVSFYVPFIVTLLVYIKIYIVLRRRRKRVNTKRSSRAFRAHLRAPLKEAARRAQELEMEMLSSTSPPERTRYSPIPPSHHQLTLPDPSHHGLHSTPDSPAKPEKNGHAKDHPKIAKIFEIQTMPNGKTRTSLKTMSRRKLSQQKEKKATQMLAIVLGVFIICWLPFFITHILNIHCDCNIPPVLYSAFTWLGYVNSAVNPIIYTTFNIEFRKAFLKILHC

Cc1cc2c3c(n(Cc4ccccc4)c2s1)CC1CCC3N1C (centres unmarked) [3.13(1)•HCl, 9-benzyl-2,10-dimethyl-4,5,6,7,8,9-hexahydro-4,7-epiminocyclohepta[b]thieno[3,2-d]pyrrole] gave an inhibition at 1 µM [1] of 95%, an inhibition at 1 µM [2] of 12% and an inhibition at 1 µM [3] of 65%. It also gave an inhibition at 1 µM [4] of 19%, an inhibition at 1 µM [5] of 79% and an inhibition at 1 µM [6] of 37%. The inhibition at 1 µM [7] was 67%, the radio-labelled ligand displacement, Adrenergic α1A [8] was 61% and the inhibition at 1 µM [9] was 40%. For the same compound, the inhibition at 1 µM [10] was 90%, the inhibition at 1 µM [11] was 81% and the inhibition at 1 µM [12] was 88%. The radio-labelled ligand displacement, Serotoninergic 5-HT1B [13] was 20% and the inhibition at 1 µM [14] was 25%.
